We go through six compounds from patent US9486506B2 (Novo Nordisk A/S, priority 2011, dated 2016).

Numbered stars: 1 amine (or outer) side, 2 acyl side, 3 side chain; on linkers, the order of the positions; unused ones are H or OH. Side chains are listed from the residue outwards. Peptide text beside a SMILES is read from it. * marks the point of attachment. C18 diacid = O=C(O)CCCCCCCCCCCCCCCCC(=O)*; γGlu = O=C(O)[C@H](CCC(=O)[*:2])N[*:1]; AEEA = NCCOCCOCC(=O)O

In data set [1] the target is T1, glucagon receptor (Homo sapiens, UniProt P47871).
T1 construct: expressed in transfected cells
T1 sequence (P47871 26-477): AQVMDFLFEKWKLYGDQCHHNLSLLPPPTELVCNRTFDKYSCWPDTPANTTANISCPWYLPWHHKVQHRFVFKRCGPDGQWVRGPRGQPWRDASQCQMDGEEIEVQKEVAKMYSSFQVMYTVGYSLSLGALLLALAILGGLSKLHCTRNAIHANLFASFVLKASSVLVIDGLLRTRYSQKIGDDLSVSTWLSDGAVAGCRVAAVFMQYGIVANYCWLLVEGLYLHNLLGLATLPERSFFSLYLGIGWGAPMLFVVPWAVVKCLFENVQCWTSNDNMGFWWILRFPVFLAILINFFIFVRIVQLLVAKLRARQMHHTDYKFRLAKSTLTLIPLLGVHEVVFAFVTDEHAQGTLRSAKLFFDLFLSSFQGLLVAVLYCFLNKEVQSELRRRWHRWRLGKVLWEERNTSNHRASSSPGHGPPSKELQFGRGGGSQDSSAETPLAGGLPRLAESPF
Put plainly: Assay (I) Glucagon activity (cAMP biosensor, FLIPR). It is filed as cell-based.

A short description of data set [2]: Assay (X) Chemical stability assessment by RP-UPLC. Format: physicochemical. The note with it: pH 8.15, 14 days at 37° C. vs 5° C., 333 μM.

The term EC50 denotes the concentration that produces a half-maximal response. `CC(C)C[C@H](NC(=O)[C@H](Cc1ccc(O)cc1)NC(=O)[C@H](CCCNC(=N)N)NC(=O)[C@H](CO)NC(=O)[C@H](Cc1ccc(O)cc1)NC(=O)[C@H](CC(=O)O)NC(=O)[C@H](CO)NC(=O)[C@@H](NC(=O)[C@H](Cc1ccccc1)NC(=O)[C@@H](NC(=O)CNC(=O)[C@H](CCC(N)=O)NC(=O)[C@H](CO)NC(=O)[C@@H](N)Cc1c[nH]cn1)[C@@H](C)O)[C@@H](C)O)C(=O)N[C@@H](CC(=O)O)C(=O)N[C@@H](C)C(=O)N[C@@H](CCCNC(=N)N)C(=O)N[C@@H](CCCNC(=N)N)C(=O)N[C@@H](C)C(=O)N[C@@H](CCC(N)=O)C(=O)N[C@@H](CC(=O)O)C(=O)N[C@@H](Cc1ccccc1)C(=O)N[C@H](C(=O)N[C@@H](CCCCNC(=O)CC[C@H](NC(=O)CC[C@H](NC(=O)CC[C@H](NC(=O)CC[C@H](NC(=O)CCCCCCCCCCCCCCCCC(=O)O)C(=O)O)C(=O)O)C(=O)O)C(=O)O)C(=O)N[C@@H](Cc1c[nH]c2ccccc12)C(=O)N[C@@H](CC(C)C)C(=O)N[C@@H](CC(C)C)C(=O)N[C@@H](CO)C(=O)N[C@H](C(=O)O)[C@@H](C)O)C(C)C` [Example 96, N^ε24-[(4S)-4-carboxy-4-[[(4S)-4-carboxy-4-[[(4S)-4-carboxy-4-[[(4S)-4-carboxy-4-(17-carboxyheptadecanoylamino)butanoyl]amino]butanoyl]amino]butanoyl]amino]butanoyl]-[Arg12,Ala16,Lys24,Leu27,Ser28]-Glucagon] (H-HSQGTFTSDYSRYLDARRAQDFVK([γGlu-γGlu-γGlu-γGlu-C18 diacid])WLLST-OH; N-terminus and C-terminus assumed) came in with an EC50 in data set [1] of 0.062 nM. Also, the “Chemical stability [Purity loss/14 days 37 C.]” value in data set [2] turned out to be 4.5%.

`CC(C)C[C@H](NC(=O)[C@H](Cc1ccc(O)cc1)NC(=O)[C@H](CCCNC(=N)N)NC(=O)[C@H](CO)NC(=O)[C@H](Cc1ccc(O)cc1)NC(=O)[C@H](CC(=O)O)NC(=O)[C@H](CO)NC(=O)[C@@H](NC(=O)[C@H](Cc1ccccc1)NC(=O)[C@@H](NC(=O)CNC(=O)[C@H](CCC(N)=O)NC(=O)[C@H](CO)NC(=O)[C@@H](N)Cc1c[nH]cn1)[C@@H](C)O)[C@@H](C)O)C(=O)N[C@@H](CCC(=O)O)C(=O)N[C@@H](CO)C(=O)N[C@@H](CCCNC(=N)N)C(=O)N[C@@H](CCCNC(=N)N)C(=O)N[C@@H](C)C(=O)N[C@@H](CCC(N)=O)C(=O)N[C@@H](CCC(=O)O)C(=O)N[C@@H](Cc1ccccc1)C(=O)N[C@H](C(=O)N[C@@H](CCCCNC(=O)CC[C@H](NC(=O)CC[C@H](NC(=O)COCCOCCNC(=O)COCCOCCNC(=O)CC[C@H](NC(=O)CCCCCCCCCCCCCCCCC(=O)O)C(=O)O)C(=O)O)C(=O)O)C(=O)N[C@@H](Cc1c[nH]c2ccccc12)C(=O)N[C@@H](CC(C)C)C(=O)N[C@@H](CC(C)C)C(=O)N[C@@H](CO)C(=O)N[C@H](C(=O)O)[C@@H](C)O)C(C)C` [Example 52, N^ε24-[(4S)-4-carboxy-4-[[(4S)-4-carboxy-4-[[2-[2-[2-[[2-[2-[2-[[(4S)-4-carboxy-4-(17-carboxyheptadecanoylamino)butanoyl]amino]ethoxy]ethoxy]acetyl]amino]ethoxy]ethoxy]acetyl]amino]butanoyl]amino]butanoyl]-[Arg12,Glu15,Glu21,Lys24,Leu27,Ser28]-Glucagon] (H-HSQGTFTSDYSRYLESRRAQEFVK([γGlu-γGlu-AEEA-AEEA-γGlu-C18 diacid])WLLST-OH): in data set [1], the EC50 is 0.289 nM. In addition, the “Chemical stability [Purity loss/14 days 37 C.]” value in data set [2] stood at 6.3%.

On to `CC(C)C[C@H](NC(=O)[C@H](Cc1ccc(O)cc1)NC(=O)[C@H](CCCNC(=N)N)NC(=O)[C@H](CO)NC(=O)[C@H](Cc1ccc(O)cc1)NC(=O)[C@H](CC(=O)O)NC(=O)[C@H](CO)NC(=O)[C@@H](NC(=O)[C@H](Cc1ccccc1)NC(=O)[C@@H](NC(=O)CNC(=O)[C@H](CCC(N)=O)NC(=O)[C@H](CO)NC(=O)[C@@H](N)Cc1c[nH]cn1)[C@@H](C)O)[C@@H](C)O)C(=O)N[C@@H](CCC(=O)O)C(=O)N[C@@H](CO)C(=O)N[C@@H](CCCNC(=N)N)C(=O)N[C@@H](CCCNC(=N)N)C(=O)N[C@@H](C)C(=O)N[C@@H](CCC(N)=O)C(=O)N[C@@H](CCC(=O)O)C(=O)N[C@@H](Cc1ccccc1)C(=O)N[C@H](C(=O)N[C@@H](CCCCNC(=O)CC[C@H](NC(=O)CC[C@H](NC(=O)CC[C@H](NC(=O)CC[C@H](NC(=O)CCCCCCCCCCCCCCCCC(=O)O)C(=O)O)C(=O)O)C(=O)O)C(=O)O)C(=O)N[C@@H](Cc1c[nH]c2ccccc12)C(=O)N[C@@H](CC(C)C)C(=O)N[C@@H](CC(C)C)C(=O)N[C@@H](CO)C(=O)N[C@H](C(=O)O)[C@@H](C)O)C(C)C` [Example 51, N^ε24-[(4S)-4-carboxy-4-[[(4S)-4-carboxy-4-[[(4S)-4-carboxy-4-[[(4S)-4-carboxy-4-(17-carboxyheptadecanoylamino)butanoyl]amino]butanoyl]amino]butanoyl]amino]butanoyl]-[Arg12,Glu15,Glu21,Lys24,Leu27,Ser28]-Glucagon] (H-HSQGTFTSDYSRYLESRRAQEFVK([γGlu-γGlu-γGlu-γGlu-C18 diacid])WLLST-OH), for which, in data set [1], the EC50 stood at 0.148 nM. Moreover, in data set [2], the “Chemical stability [Purity loss/14 days 37 C.]” value is on record as 5.7%.

Compound `CC(C)C[C@H](NC(=O)[C@H](Cc1c[nH]c2ccccc12)NC(=O)[C@H](CCCCNC(=O)CC[C@H](NC(=O)CC[C@H](NC(=O)CC[C@H](NC(=O)CC[C@H](NC(=O)CCCCCCCCCCCCCCCCC(=O)O)C(=O)O)C(=O)O)C(=O)O)C(=O)O)NC(=O)[C@@H](NC(=O)[C@H](Cc1ccccc1)NC(=O)[C@H](CC(=O)O)NC(=O)[C@H](CCC(N)=O)NC(=O)[C@H](C)NC(=O)[C@H](CCCNC(=N)N)NC(=O)[C@H](CCCNC(=N)N)NC(=O)[C@@H](NC(=O)[C@H](CC(=O)O)NC(=O)[C@H](CC(C)C)NC(=O)[C@H](Cc1ccc(O)cc1)NC(=O)[C@H](CCCCN)NC(=O)[C@H](CO)NC(=O)[C@H](Cc1ccc(O)cc1)NC(=O)[C@H](CC(=O)O)NC(=O)[C@H](CO)NC(=O)[C@@H](NC(=O)[C@H](Cc1ccccc1)NC(=O)[C@@H](NC(=O)CNC(=O)[C@H](CCC(N)=O)NC(=O)[C@H](CO)NC(=O)[C@@H](N)Cc1c[nH]cn1)[C@@H](C)O)[C@@H](C)O)C(C)C)C(C)C)C(=O)N[C@@H](CC(C)C)C(=O)N[C@@H](CO)C(=O)N[C@H](C(N)=O)[C@@H](C)O` [Example 76, N^ε24-[(4S)-4-carboxy-4-[[(4S)-4-carboxy-4-[[(4S)-4-carboxy-4-[[(4S)-4-carboxy-4-(17-carboxyheptadecanoylamino)butanoyl]amino]butanoyl]amino]butanoyl]amino]butanoyl]-[Val16,Lys24,Leu27,Ser28]-Glucagon amide] displayed an EC50 in data set [1] of 0.268 nM. In addition, the “Chemical stability [Purity loss/14 days 37 C.]” value in data set [2] is 5.5%.

Take `CC[C@H](C)[C@H](NC(=O)[C@H](CC(=O)O)NC(=O)[C@H](CC(C)C)NC(=O)[C@H](Cc1ccc(O)cc1)NC(=O)[C@H](CCCNC(=N)N)NC(=O)[C@H](CO)NC(=O)[C@H](Cc1ccc(O)cc1)NC(=O)[C@H](CC(=O)O)NC(=O)[C@H](CO)NC(=O)[C@@H](NC(=O)[C@H](Cc1ccccc1)NC(=O)[C@@H](NC(=O)CNC(=O)[C@H](CCC(N)=O)NC(=O)[C@H](CO)NC(=O)[C@@H](N)Cc1c[nH]cn1)[C@@H](C)O)[C@@H](C)O)C(=O)N[C@@H](CCCNC(=N)N)C(=O)N[C@@H](CCCNC(=N)N)C(=O)N[C@@H](C)C(=O)N[C@@H](CCC(N)=O)C(=O)N[C@@H](CCC(=O)O)C(=O)N[C@@H](Cc1ccccc1)C(=O)N[C@H](C(=O)N[C@@H](CCCCNC(=O)CC[C@H](NC(=O)CC[C@H](NC(=O)COCCOCCNC(=O)COCCOCCNC(=O)CC[C@H](NC(=O)CCCCCCCCCCCCCCCCC(=O)O)C(=O)O)C(=O)O)C(=O)O)C(=O)N[C@@H](Cc1c[nH]c2ccccc12)C(=O)N[C@@H](CC(C)C)C(=O)N[C@@H](CCC(=O)O)C(=O)N[C@@H](CO)C(=O)N[C@H](C(=O)O)[C@@H](C)O)C(C)C` [Example 53, N^ε24-[(4S)-4-carboxy-4-[[(4S)-4-carboxy-4-[[2-[2-[2-[[2-[2-[2-[[(4S)-4-carboxy-4-(17-carboxyheptadecanoylamino)butanoyl]amino]ethoxy]ethoxy]acetyl]amino]ethoxy]ethoxy]acetyl]amino]butanoyl]amino]butanoyl]-[Arg12,Ile16,Glu21,Lys24,Glu27,Ser28]-Glucagon] (H-HSQGTFTSDYSRYLDIRRAQEFVK([γGlu-γGlu-AEEA-AEEA-γGlu-C18 diacid])WLEST-OH): it took 0.099 nM to reach a half-maximal effect in data set [1] (EC50). In data set [2], the “Chemical stability [Purity loss/14 days 37 C.]” value is 2.5%.

In turn, `CC[C@H](C)[C@H](NC(=O)[C@H](CC(=O)O)NC(=O)[C@H](CC(C)C)NC(=O)[C@H](Cc1ccc(O)cc1)NC(=O)[C@H](CCCNC(=N)N)NC(=O)[C@H](CO)NC(=O)[C@H](Cc1ccc(O)cc1)NC(=O)[C@H](CC(=O)O)NC(=O)[C@H](CO)NC(=O)[C@@H](NC(=O)[C@H](Cc1ccccc1)NC(=O)[C@@H](NC(=O)CNC(=O)[C@H](CCC(N)=O)NC(=O)[C@H](CO)NC(=O)[C@@H](N)Cc1c[nH]cn1)[C@@H](C)O)[C@@H](C)O)C(=O)N[C@@H](CCCNC(=N)N)C(=O)N[C@@H](CCCNC(=N)N)C(=O)N[C@@H](C)C(=O)N[C@@H](CCC(N)=O)C(=O)N[C@@H](CC(=O)O)C(=O)N[C@@H](Cc1ccccc1)C(=O)N[C@H](C(=O)N[C@@H](CCCCNC(=O)CC[C@H](NC(=O)CC[C@H](NC(=O)COCCOCCNC(=O)COCCOCCNC(=O)CC[C@H](NC(=O)CCCCCCCCCCCCCCCCC(=O)O)C(=O)O)C(=O)O)C(=O)O)C(=O)N[C@@H](Cc1c[nH]c2ccccc12)C(=O)N[C@@H](CC(C)C)C(=O)N[C@@H](CC(C)C)C(=O)N[C@@H](CO)C(=O)N[C@H](C(=O)O)[C@@H](C)O)C(C)C` [Example 23, N^ε24-[(4S)-4-carboxy-4-[[(4S)-4-carboxy-4-[[2-[2-[2-[[2-[2-[2-[[(4S)-4-carboxy-4-(17-carboxyheptadecanoylamino)butanoyl]amino]ethoxy]ethoxy]acetyl]amino]ethoxy]ethoxy]acetyl]amino]butanoyl]amino]butanoyl]-[Arg^12,Ile^16,Lys^24,Leu^27,Ser^28]-Glucagon] (H-HSQGTFTSDYSRYLDIRRAQDFVK([γGlu-γGlu-AEEA-AEEA-γGlu-C18 diacid])WLLST-OH) gave an EC50 in data set [1] of 1.04 nM. For the same compound, the “Chemical stability [Purity loss/14 days 37 C.]” value in data set [2] was 3.1%.
